In ChEMBL document CHEMBL1155574, “Hemolytic polar steroidal constituents of the starfish Aphelasterias japonica” (J Nat Prod, 2000) one finds HC50 data, which are given here for six compounds.

Some results are limits rather than exact numbers.

The data set can be described thus: Toxicity against mouse erythrocytes assessed as hemolytic activity. The conditions noted are these: read-out: ED50 (the source's name). The class given is cell-based, Erythrocyte.
`CC(C)CC(=O)C[C@](C)(O)[C@H]1CC[C@H]2[C@@H]3C[C@H](O)[C@H]4C[C@@H](OS(=O)(=O)O)CC[C@]4(C)C3=CC[C@@]21C` [3-O-SULFOTHORNASTEROL A]: the HC50 came out at 110 µM.
To `CC(=O)[C@H]1CC[C@H]2[C@@H]3C[C@H](O)[C@H]4C[C@@H](OS(=O)(=O)O)CC[C@]4(C)C3=CC[C@]12C` belongs greater than 500 µM; to `CC(C)[C@H](O)C(=O)C[C@@H](C)[C@H]1CC[C@H]2[C@@H]3C[C@H](O)[C@H]4C[C@@H](OS(=O)(=O)O)CC[C@]4(C)C3=CC[C@]12C` [APHELAKETOTRIOL], 40 µM; to `CC(C)[C@H](O)C(=O)C[C@@H](C)[C@H]1CC[C@H]2[C@@H]3C[C@H](O[C@H]4O[C@@H](C)[C@H](OS(=O)(=O)O)[C@@H](O)[C@@H]4O)[C@H]4C[C@@H](OS(=O)(=O)O)CC[C@]4(C)C3=CC[C@]12C` [APHELASTEROSIDE C], 190 µM.
For `CC(=O)[C@H]1CC[C@H]2[C@@H]3C[C@H](O[C@H]4O[C@@H](C)[C@H](O)[C@@H](O)[C@@H]4O)[C@H]4C[C@@H](OS(=O)(=O)O)CC[C@]4(C)C3=CC[C@]12C` [FORBESIDE E3], the HC50 is 330 µM.
`CC(=O)[C@H]1CC[C@H]2[C@@H]3C[C@H](O[C@H]4O[C@@H](C)[C@H](OS(=O)(=O)O)[C@@H](O)[C@@H]4O)[C@H]4C[C@@H](OS(=O)(=O)O)CC[C@]4(C)C3=CC[C@]12C` [CHELIFEROSIDE L1]: the HC50 was 175 µM.
